Laboratory results published in PubChem BioAssay (NCI).
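1) Cells in 96-well plates. 2) Compound, 48 h, 5 concentrations. 3) Linear interpolation between surrounding doses. 4) Unreached endpoint = highest concentration. TGI denotes the concentration required for complete inhibition of growth.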

Tests used:
Assay in all cases: inhibition of tumour cell growth, NCI panel, 48 h
SF-539 CNS = test system: SF-539 CNS
A549 NSCLC = test system: A549 NSCLC
SK-MEL-28 melanoma = test system: SK-MEL-28 melanoma
NCI-H226 lung = test system: NCI-H226 lung
UACC-257 melanoma = test system: UACC-257 melanoma
NCI-H23 lung = test system: NCI-H23 lung
UO-31 renal = test system: UO-31 renal
786-0 renal = test system: 786-0 renal
HOP-18 NSCLC = test system: HOP-18 NSCLC
MOLT-4 leukemia = test system: MOLT-4 leukemia
IGROV1 ovarian = test system: IGROV1 ovarian
XF 498 CNS = test system: XF 498 CNS
TK-10 renal = test system: TK-10 renal
CAKI-1 renal = test system: CAKI-1 renal
MALME-3M melanoma = test system: MALME-3M melanoma
CCRF-CEM leukemia = test system: CCRF-CEM leukemia
NCI-H460 lung = test system: NCI-H460 lung
SW-620 colon = test system: SW-620 colon
SNB-78 CNS = test system: SNB-78 CNS
HCC-2998 colon = test system: HCC-2998 colon
HL-60(TB) leukemia = test system: HL-60(TB) leukemia
KM12 colon = test system: KM12 colon
COLO 205 colon = test system: COLO 205 colon
SN12C renal = test system: SN12C renal
HCT-116 colon = test system: HCT-116 colon
SF-295 CNS = test system: SF-295 CNS
LXFL 529 NSCLC = test system: LXFL 529 NSCLC
SF-268 CNS = test system: SF-268 CNS
UACC-62 melanoma = test system: UACC-62 melanoma
SNB-75 CNS = test system: SNB-75 CNS
SR leukemia = test system: SR leukemia
OVCAR-3 ovarian = test system: OVCAR-3 ovarian
ACHN renal = test system: ACHN renal
HT29 colon = test system: HT29 colon
SNB-19 CNS = test system: SNB-19 CNS
EKVX NSCLC = test system: EKVX NSCLC
HOP-92 NSCLC = test system: HOP-92 NSCLC
RXF-631 renal = test system: RXF-631 renal
OVCAR-8 ovarian = test system: OVCAR-8 ovarian
DMS 273 small cell lung = test system: DMS 273 small cell lung
A498 renal = test system: A498 renal
KM20L2 colon = test system: KM20L2 colon
LOX IMVI melanoma = test system: LOX IMVI melanoma
DMS 114 small cell lung = test system: DMS 114 small cell lung
SK-OV-3 ovarian = test system: SK-OV-3 ovarian
RXF 393 renal = test system: RXF 393 renal
OVCAR-5 ovarian = test system: OVCAR-5 ovarian
NCI-H522 lung = test system: NCI-H522 lung
M14 melanoma = test system: M14 melanoma
K-562 leukemia = test system: K-562 leukemia
M19-MEL melanoma = test system: M19-MEL melanoma
DLD-1 colon = test system: DLD-1 colon
RPMI-8226 leukemia = test system: RPMI-8226 leukemia

Measured: TGI

Cc1c(C(=O)/C=C/c2ccco2)[n+](=O)c2ccccc2n1[O-]
> 100 µM: SF-539 CNS | A549 NSCLC | SK-MEL-28 melanoma | NCI-H226 lung | UACC-257 melanoma | NCI-H23 lung | UO-31 renal | 786-0 renal | HOP-18 NSCLC | MOLT-4 leukemia | IGROV1 ovarian | XF 498 CNS | TK-10 renal | CAKI-1 renal | MALME-3M melanoma | CCRF-CEM leukemia | NCI-H460 lung | SW-620 colon | SNB-78 CNS | HCC-2998 colon | HL-60(TB) leukemia | KM12 colon | COLO 205 colon | SN12C renal | HCT-116 colon | SF-295 CNS | LXFL 529 NSCLC | SF-268 CNS | UACC-62 melanoma | SNB-75 CNS | SR leukemia | OVCAR-3 ovarian | ACHN renal | HT29 colon | SNB-19 CNS | EKVX NSCLC | HOP-92 NSCLC | RXF-631 renal | OVCAR-8 ovarian | DMS 273 small cell lung | A498 renal | KM20L2 colon | LOX IMVI melanoma | DMS 114 small cell lung | SK-OV-3 ovarian | RXF 393 renal | OVCAR-5 ovarian | NCI-H522 lung | M14 melanoma | K-562 leukemia | M19-MEL melanoma | DLD-1 colon | RPMI-8226 leukemia
